Measured values from patent publication US20210395311A1, “CYCLIC PEPTIDE DIMERS” (New York University, priority 2019, published 2021).
Entries after “also recorded” stand apart in the source; their conditions may differ. Bridge positions count the residues as written; N and C are the ends. Ends that are not written are not given here. I, II: the chains in the order shown.

What was measured:
[1] = Solubility of the synthetic peptides; assay type: physicochemical; conditions: 10% acetonitrile in water was used to dissolve
Description: It was synthesized separately. For 324822, protected linear peptide was cleaved from resin and cyclized in DMF following the above procedure. After removing the protecting groups, the peptide was isolated by RP-HPLC purification. […] 10% acetonitrile in water was used to dissolve the peptides.

[2] = tested on: B16F10 mouse melanoma cells; assay: CIF in vitro bioassay: contact inhibitory response of B16F10 cells to test samples; assay type: cell-based; conditions: for CIF activity of synthesized monomer and dimer: monomer and dimer separated by RP-HPLC, each separately bioassayed; for contact inhibition activity of cyclic peptide dimer isomers: peptides A-C unprotected, D-F with one Acm-protected Cys per ring
Description: Contact Inhibitory Factor is a Structurally Novel Endogenous Cyclic Decapeptide Dimer. Determining the Structure of the CIF Molecule—Overall Approach. Identifying the molecule responsible for restoring contact inhibition of growth to melanoma cells first required production of the CIF positive culture medium from the serum free AM cell line (SFAMCM), followed by column chromatography, electrophoresis and mass spectroscopy of this culture medium. Samples obtained after each procedure were evaluated for CIF activity with an in vitro bioassay (Bioassay described herein). Identification of CIF structure evolved in three stages: (1) the CIF active conditioned medium from the AM cells (SFAMCM) contained a single decapeptide; (2) the decapeptide is head-to-tail cyclic; (3) the complete bioactive CIF molecule is a dimer composed of identical disulfide linked cyclic decapeptides. An in vitro bioassay used to monitor and guide purification involved the contact inhibitory response of B16F10 mouse melanoma cells to test samples. The latter included (1) CIF-containing medium from both the AM and revertant FF cell lines; (2) all fractions derived from the AM medium during purification; (3) the synthetic CIF peptide. Results were evaluated independently by two investigators. Samples were graded from 0 to 4, where 0 indicated no activity and 4 indicated maximum activity. Only samples graded 3 or 4 by both investigators were selected for purification.
Bioassay. Preparation of Samples. Conditioned Culture Medium (SFFFCM) and (SFAMCM). The positive control was the CIF positive conditioned culture medium from the FF cell line, SFFFCM. The negative control was DMEM 10% FBS. 3.6 ml of the sample was pipetted into a sterile 15 ml tube and heat activated at 80° C.×10 mins (minutes). After cooling to room temperature 0.4 ml FBS was added to make the FBS concentration 10%. For different volumes of conditioned culture medium the appropriate volume of FBS was added to make the final FBS concentration 10%. Both SFFFCM and SFAMCM were lyophilized and stored in desiccator jars under vacuum at 3° C.
Lyophilized Samples. To prepare the SFFFCM and the SFAMCM for the bioassay they were reconstituted with DMEM, heat activated at 80° C.×10 mins and cooled to room temperature. Sufficient volume of FBS was added to make the final FBS concentration 10%. The final volume of the sample was at least 2 ml to ensure that there was enough material for refeeding the bioassay plates.
Dilution of Samples. The samples were tested at 1:1 (undiluted), 1:2 and 1:4. The dilutions were made with DMEM 10% FBS. Higher dilutions may be used as needed. Each well contained 0.2 ml of sample, including the positive and negative controls. Each sample was done in duplicate. The wells were refed with fresh sample after 48 hrs.
Setting up the Bioassay. Using a 96 well flat bottom plate, 0.2 ml sterile water was pipetted into all outside wells. 0.2 ml 10% DMEM containing 20,000 B16F10 cells were pipetted into each well for the bioassay. Each sample was done in duplicate, including positive and negative controls. […]. The plate was placed in a 37° C., 5% CO2 incubator for approximately 4 hours to allow for cells to attach and spread. The time for attachment may vary for other cell lines. After the cells had attached and spread, the DMEM was removed and replaced with 0.2 ml of sample, positive and negative controls. The wells were observed daily and scored for CIF activity. The wells were refed after 48 hours or as needed, 0.2 ml for weekdays, 0.3 ml for weekends.
Scoring for CIF Activity. The samples were scored for CIF activity as follows:
4+=All cells are contact inhibited, flattened with an elongated fibroblast-like morphology. 3+=Not all cells are contact inhibited, elongated or fibroblast-like. There are a few scattered clusters of dividing cells. 2+=Fewer contact Inhibited cells and more clusters of dividing cells. […]

Row | Substance | contact inhibition activity of cyclic peptide dimer isomers [2] | further results
1 | c (Gly-Met-Met-Cys-Val-Thr-His-Cys-Asn-Gly (SEQ ID NO:1)) w/Cys-Cys bridge (cyclo(GMMCVTHCNG); disulfide 4-8 (inferred)) [compound 324822] | – | solubility in 100% aqueous solution [1]: not soluble
2 | dimer: synthesized CIF dimer of two identical disulfide linked head-to-tail cyclic decapeptides (SEQ ID NO:1), peak at 2068 Da (cyclo(GMMCVTHCNG); also: disulfide-linked dimer of two identical cyclic peptides, Cys not given here) | – | CIF activity of synthesized monomer and dimer [2]: strongly positive; CIF activity of synthesized monomer and dimer ([2]; listed as synthetic dimer): CIF positive
3 | monomer: synthetic head-to-tail cyclic decapeptide Gly-Met-Met-Cys-Val-Thr-His-Cys-Asn-Gly (SEQ ID NO:1), peak at 1034 Da (GMMCVTHCNG; head-to-tail cyclized) | – | CIF activity of synthesized monomer and dimer [2]: CIF negative
4 | peptide A: two head-to-tail cyclized SEQ ID NO:1 peptides; Cys at position 8 disulfide bonded to Cys at position 8 of the second (chain 1 GMMCVTHCNG; chain 2 GMMCVTHCNG; disulfide I:8-II:8; cysteine pairing not given here; also: head-to-tail to a chain's N/C-terminus) | suitable contact inhibitors | –
5 | peptide B: two head-to-tail cyclized SEQ ID NO:1 peptides; Cys at position 4 disulfide bonded to Cys at position 4 of the second (chain 1 GMMCVTHCNG; chain 2 GMMCVTHCNG; disulfide I:4-II:4; cysteine pairing not given here; also: head-to-tail to a chain's N/C-terminus) | suitable contact inhibitors | –
6 | peptide C: two head-to-tail cyclized SEQ ID NO:1 peptides; Cys at position 8 disulfide bonded to Cys at position 4 of the second (chain 1 GMMCVTHCNG; chain 2 GMMCVTHCNG; disulfide I:8-II:4; cysteine pairing not given here; also: head-to-tail to a chain's N/C-terminus) | suitable contact inhibitors | –
7 | peptide D: SEQ ID NO:1 head to tail cyclized, attached via a disulfide bond, one Cys on each sequence acetamidomethyl (Acm) protected (chain 1 GMMCVTHCNG; chain 2 GMMCVTHCNG; disulfide (positions not given here); also: one Cys per chain Acm-protected, which not given here, head-to-tail to a chain's N/C-terminus) | did not have activity; also recorded: not effective contact inhibitors | –
8 | peptide E: SEQ ID NO:1 head to tail cyclized, attached via a disulfide bond, one Cys on each sequence acetamidomethyl (Acm) protected (chain 1 GMMCVTHCNG; chain 2 GMMCVTHCNG; disulfide (positions not given here); also: one Cys per chain Acm-protected, which not given here, head-to-tail to a chain's N/C-terminus) | did not have activity; also recorded: not effective contact inhibitors | –
9 | peptide F: SEQ ID NO:1 head to tail cyclized, attached via a disulfide bond, one Cys on each sequence acetamidomethyl (Acm) protected (chain 1 GMMCVTHCNG; chain 2 GMMCVTHCNG; disulfide (positions not given here); also: one Cys per chain Acm-protected, position not given here, head-to-tail to a chain's N/C-terminus, head-to-tail to a chain's N/C-terminus) | did not have activity; also recorded: not effective contact inhibitors | –
